Experiments:
[1] = test system: broadly tuned (B) glomerulus of the antennal lobe; test: Two-photon calcium imaging of odour-evoked activity in the broadly tuned (B) glomerulus; format: in vivo, Aedes aegypti
Excerpt: (§1) We designed a two-photon microscope that incorporates both resonant scanning^69 and remote focusing^70,71 to achieve rapid, volumetric, in vivo neural imaging. Remote focusing allows rapid switching of the imaging plane by moving a small, lightweight mirror located upstream in the imaging path. […] In diagnostic tests, transition times for switching between two planes were less than 6 ms.
(§2) We custom-designed a mosquito holder with a 3D-printed plastic frame and thin stainless-steel plate (FIG. 2C, thickness 0.001 inch). A tiny mosquito-head-sized hole was photo-chemically etched on the plate (ETCHIT Company). To prepare for imaging, we anaesthetized a female on ice for ˜1 min, pushed the anterodorsal side of her head into the hole, and fixed it with UV glue (RapidFix 6121830ES). The antennae, maxillary palps, and proboscis remained below the metal plate and contacted neither the plate nor the glue. We added room-temperature saline (103 mM NaCl, 3 mM KCl, 5 mM TES, 26 mM NaHCO3, 1 mM NaH2PO4, 1.5 mM CaCl2), 4 mM MgCl2, 10 mM Trehalose, 10 mM Glucose; pH 7.1) to the holder and used sharp forceps to remove a section of the head capsule (including both cuticle and the edge of the eyes) from the part of the head protruding through the metal plate. During imaging, we continuously perfused saline bubbled with carbogen (5% CO2, 95% O2) through the holder and across the open head capsule at 125 ml/hour.
We used the ScanImage^72 package in Matlab to control the microscope and acquire images. For each individual, we chose either the right or left antennal lobe (AL) and recorded movies of odour-evoked activity (starting 7-30 sec before and continuing 20-60 sec after synthetic-odorant puffs; ˜30 sec before, ˜140 sec after puffs of complex extract). The movies covered the entire AL in Z-stacks that were 4 μm apart at 128×128 pixel resolution (22 stacks total, green channel only for the orco-T2A-QF2-QUAS-GCaMP 6f strain; 28 stacks, green and red channels for the brp>jGCaMP7s strain). […] Laser power as measured at the sample plane was 10 mW. […]

[2] = test system: human-sensitive (H) glomerulus of the antennal lobe; test: Two-photon calcium imaging of odour-evoked activity in the human-sensitive (H) glomerulus; format: in vivo, Aedes aegypti; conditions: for response of H glomerulus: panel of 50 single odorants at approximately the same vapour-phase concentration (that of sulcatone in 1× human odour)
Excerpt: as §1, §2
(§3) We used the ScanImage^72 package in Matlab to control the microscope and acquire images. For each individual, we chose either the right or left antennal lobe (AL) and recorded movies of odour-evoked activity (starting 7-30 sec before and continuing 20-60 sec after synthetic-odorant puffs; ˜30 sec before, ˜140 sec after puffs of complex extract). The movies covered the entire AL in Z-stacks that were 4 μm apart at 128×128 pixel resolution (22 stacks total, green channel only for the orco-T2A-QF2-QUAS-GCaMP 6f strain; 28 stacks, green and red channels for the brp>jGCaMP7s strain). The resulting voxel size was approximately 0.9×0.8×4 μm^3, and the volumetric imaging rate was 3.76 Hz for the orco-T2A-QF2-QUAS-GCaMP 6f strain and 2.95 Hz for the brp>jGCaMP7s strain. We increased the laser power exponentially with depth (ranging from 7.5 to 10 mW) to account for light decay and scattering in deeper tissues. Laser power as measured at the sample plane was 10 mW. After recording odour-evoked activity, we acquired 30-40 high-resolution structural volumes at high laser power to aid registration and downstream analysis. For this, we imaged the AL in 120-180 z-stacks, 1 μm apart, at 256×256 pixel resolution.
The three target glomeruli could be reliably identified across brains based on position and responses to key reference odorants. Human-sensitive glomerulus H was located in the anterior AL, adjacent to a landmark non-Orco glomerulus in our two-photon images (unlabeled area surrounded by Orco+ glomeruli; FIGS. 8A-B), and responded to 10^−2 heptanal. Animal-sensitive glomerulus A was located in the dorsal AL and responded to 10^−2 phenol. Broadly tuned glomerulus B was located in the posterior-medial AL and responded to 10^−2 benzaldehyde. Glomeruli H, A, and B tentatively correspond to V3, MD2, and PD1, respectively, in a previously published atlas^35, but we cannot be sure without molecular markers.
We used area under df/f curves as a metric for neural activity. For single-odorant stimuli, which evoked single df/f peaks, we defined the peak boundaries by first locating the max (for activation) or min (for inhibition) points in the df/f curve and then extending from the max/min point until df/f dropped to background levels. For natural odour extracts, which sometimes evoked multiple peaks, we integrated df/f values from desorption of the focusing trap to the end of neural recording (0 to 140 sec). […]

[3] = test system: animal-sensitive (A) glomerulus of the antennal lobe; test: Two-photon calcium imaging of odour-evoked activity in the animal-sensitive (A) glomerulus; format: in vivo, Aedes aegypti; conditions: for activation of A glomerulus: panel of 50 single odorants at approximately the same vapour-phase concentration
Excerpt: We designed a two-photon microscope that incorporates both resonant scanning^69 and remote focusing^70,71 to achieve rapid, volumetric, in vivo neural imaging. Remote focusing allows rapid switching of the imaging plane by moving a small, lightweight mirror located upstream in the imaging path.
as §2, §3
We used area under df/f curves as a metric for neural activity. For single-odorant stimuli, which evoked single df/f peaks, we defined the peak boundaries by first locating the max (for activation) or min (for inhibition) points in the df/f curve and then extending from the max/min point until df/f dropped to background levels. For natural odour extracts, which sometimes evoked multiple peaks, we integrated df/f values from desorption of the focusing trap to the end of neural recording (0 to 140 sec).

[4] = test system: Orco+ glomeruli of the antennal lobe; test: Two-photon calcium imaging of odour-evoked activity across Orco+ glomeruli; format: in vivo, Aedes aegypti
Excerpt: as §1
We custom-designed a mosquito holder with a 3D-printed plastic frame and thin stainless-steel plate (FIG. 2C, thickness 0.001 inch). A tiny mosquito-head-sized hole was photo-chemically etched on the plate (ETCHIT Company). To prepare for imaging, we anaesthetized a female on ice for ˜1 min, pushed the anterodorsal side of her head into the hole, and fixed it with UV glue (RapidFix 6121830ES). The antennae, maxillary palps, and proboscis remained below the metal plate and contacted neither the plate nor the glue. […]
We used the ScanImage^72 package in Matlab to control the microscope and acquire images. For each individual, we chose either the right or left antennal lobe (AL) and recorded movies of odour-evoked activity (starting 7-30 sec before and continuing 20-60 sec after synthetic-odorant puffs; ˜30 sec before, ˜140 sec after puffs of complex extract). […] Laser power as measured at the sample plane was 10 mW. […]

[5] = test system: female Aedes aegypti mosquitoes; test: Two-port olfactometer host-preference assay; format: in vivo; conditions: in the absence of human or animal odour
Experimental: We tested the host preference of mated, non-blood-fed, 7-14 day old females that had been housed overnight with access to water only (no sucrose). We used a two-port olfactometer for choice and no-choice tests involving live hosts (FIGS. 1A and C) or sleeves/hair (FIGS. 1B and D) as previously described3. We first acclimated 75-100 female mosquitoes in the olfactometer for 5 min, then opened a sliding door and activated a fan to pull air through the two host chambers and expose mosquitoes to host odour. Mosquitoes were able to fly upwind, sample the host-odour streams, and choose to enter either host port. After 6 min, we counted the number of mosquitoes trapped in each host port. For two-choice trials with live hosts, one chamber contained a human hand and arm up to the elbow (belonging to one of six 22-43 year old individuals: 3 female, 3 male; 3 Caucasian, 2 East Asian, 1 South Asian). The human exhaled gently near the opening of the chamber once every 30 sec to provide a source of breath. The other chamber contained a guinea pig (Cavia porcellus; one of two 4-5 year old pigmented females), rat (Rattus norvegicus domesticus; one of two 2-6 month old Sprague-Dawley males), or button quail (Coturnix coturnix; one 2-3 year old female). […]

[6] = concentrations calibrated to about ⅕th of activity evoked by 1× human odour, paraffin oil
[7] = synthetic odorants singly or as combo, vapour-phase concentrations characteristic of 1× human odour, 3-sec puffs

CCCCCCO [1-hexanol]
activity evoked in B glomerulus [1, 6]: evoked activity in their cognate glomeruli

CCCCCCCCCC=O [Decanal]
activity evoked in H glomerulus [2, 6]: evoked activity in their cognate glomeruli | activity evoked in H glomerulus [2, 7]: strong and prolonged activity

CC(=O)C(C)O (stereo not shown) [acetoin]
activation of B glomerulus ([1]; synthetic odorants singly or as combo, vapour-phase concentrations characteristic of 1× human odour): strongly activated | activation of A glomerulus [3]: strongly activated | activity evoked in A glomerulus ([3]; physiological concentrations (as in 1× human odour)): too low to evoke consistent activity

O=Cc1ccccc1 [benzaldehyde]
response of B glomerulus to reference odorant ([1]; 10^−2 dilution): responded

CS(C)(=O)=O [dimethyl sulfone]
activation of A glomerulus [3]: strongly activated

CCCCCCC=O [heptanal]
response of H glomerulus to reference odorant ([2]; 10^−2 dilution): responded

CCCCCC=O [hexanal]
response of H glomerulus [2]: no response

Cc1ccc(O)cc1 [p-cresol]
activation of A glomerulus [3]: strongly activated

Oc1ccccc1 [phenol]
response of A glomerulus to reference odorant ([3]; 10^−2 dilution): responded | activation of A glomerulus [3]: strongly activated

CC(=O)CCC=C(C)C [sulcatone]
glomerular activity in response to the compound ([4]; at its concentration in 1× human odour): did not see consistent activity | glomerular activity in response to the compound ([4]; higher doses (data not shown)): several glomeruli responded

O=C=O [synthetic CO2, CO2]
response of female mosquitoes in no-choice olfactometer trials [5]: minimal

CCCCCCCCCCC=O [undecanal]
response of H glomerulus [2]: strong activity | duration of H glomerulus activity beyond the 3-second puff ([2]; single odorant at equal vapour-phase concentration): ≥ 40 s | activity evoked in H glomerulus [2, 7]: strong and prolonged activity
